We go through 15 compounds from patent publication US7407961B2, “Pyrazine derivatives and pharmaceutical use thereof” (Astellas Pharma Inc., priority 2003, dated 2008).

Where only a bound is given, the exact number is not on record here.

In general, melting point refers to the temperature, or range, at which the solid turns liquid. The term Ki denotes the dissociation constant of the complex between target and ligand, obtained from inhibition or displacement. A lower Ki goes with tighter binding.

Data set [1] relates to ddY mice. The experiment in a line: Anticatalepsy activity in mouse (haloperidol-induced catalepsy, bar test). The class given is in vivo. The following applies: 3.2 mg/kg orally, ddY mice n=7; haloperidol 0.32 mg/kg i.p. 30 min later; measured 30 min after injection. On the procedure: Test 2: Anticatalepsy Activity in Mouse [I] Test Method
The test compound (3.2 mg/kg) was administered orally with ddY mice (n=7). Then, haloperidol (0.32 mg/kg) was injected intraperitoneally 30 min. after the administration of the compound. Thirty min after the injection, the cataleptic responses of mice were measured. The forelimbs of each mouse were placed on a 3 cm high, 3 mm wide horizontal bar, and the duration of cataleptic posture was measured for up to 30 sec.

Data set [2] deals with human A2a receptor (Homo sapiens, UniProt P29274). The experiment in a line: Adenosine antagonistic activity, radioligand binding with [3H]CGS 21680. Conditions: [3H]CGS 21680 20 nM. On the procedure: (§1) Test 1: Adenosine Antagonistic Activity
Chain of human A2a receptor (P29274 whole entry): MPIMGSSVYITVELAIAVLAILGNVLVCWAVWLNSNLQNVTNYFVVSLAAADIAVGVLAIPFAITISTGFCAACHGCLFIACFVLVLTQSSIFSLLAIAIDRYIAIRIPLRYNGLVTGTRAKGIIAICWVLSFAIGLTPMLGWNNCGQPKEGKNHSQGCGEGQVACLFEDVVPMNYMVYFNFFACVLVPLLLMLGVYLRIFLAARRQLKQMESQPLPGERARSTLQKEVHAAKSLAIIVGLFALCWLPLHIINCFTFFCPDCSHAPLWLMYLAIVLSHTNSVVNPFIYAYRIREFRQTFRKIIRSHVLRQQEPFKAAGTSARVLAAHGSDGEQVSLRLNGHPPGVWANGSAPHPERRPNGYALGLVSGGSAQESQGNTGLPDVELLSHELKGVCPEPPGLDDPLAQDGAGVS
(§2) The adenosine antagonistic activity [Ki(nM)] of the test compound was examined by radioligand binding techniques using 8-cyclopentyl-1,3-dipropylxanthine, [dipropyl-2,3-^3H(N)] ([^3H]DPCPX, 4.5 nM) for human A1 receptor and [^3H]CGS 21680 (20 nM) for human A2a receptor.

In data set [3] the target is T1, human A1 receptor (Homo sapiens, UniProt P30542).
T1 sequence (P30542 1-326): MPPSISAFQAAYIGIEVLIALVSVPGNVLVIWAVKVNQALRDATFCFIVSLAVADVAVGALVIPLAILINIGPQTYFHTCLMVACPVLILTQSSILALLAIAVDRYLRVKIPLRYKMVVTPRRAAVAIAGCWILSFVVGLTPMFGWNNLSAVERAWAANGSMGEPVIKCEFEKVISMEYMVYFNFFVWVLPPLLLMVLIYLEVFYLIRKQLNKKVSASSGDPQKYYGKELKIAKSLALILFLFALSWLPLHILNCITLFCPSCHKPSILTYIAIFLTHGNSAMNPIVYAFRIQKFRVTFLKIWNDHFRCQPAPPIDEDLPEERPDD
The experiment in a line: Adenosine antagonistic activity, radioligand binding with [3H]DPCPX. Conditions: [3H]DPCPX 4.5 nM. On the procedure:
as §1, §2

Regarding `CCn1cc(-c2nc(C(N)=O)c(N)nc2-c2ccccc2)ccc1=O` [Example 4, 3-Amino-6-(1-ethyl-6-oxo-1,6-dihydro-3-pyridyl)-5-phenyl-2-pyrazinecarboxamide], the melting point was more than 250 °C. In data set [1], the “Manifestation rate of Catalepsy (number of mouse)” value (from here on “Manifestation rate of Catalepsy”) was 0/7. Moreover, the Ki in data set [2] came to 2.34 nM. The same compound came in with a Ki in data set [3] of 5.09 nM.
In the case of `Cn1cc(-c2nc(C#N)c(N)nc2-c2ccccc2)ccc1=O` [Example 11, 3-amino-6-(1-methyl-6-oxo-1,6-dihydro-3-pyridyl)-5-phenyl-2-pyrazinecarbonitrile], the “Manifestation rate of Catalepsy” value in data set [1] was 0/7. For the same compound, the Ki turned out to be 2.35 nM in data set [2] and 22.5 nM in data set [3].
The compound `CCn1cc(-c2nc(C#N)c(N)nc2-c2ccccc2)ccc1=O` [Example 12, 3-Amino-6-(1-ethyl-6-oxo-1,6-dihydro-3-pyridyl)-5-phenyl-2-pyrazinecarbonitrile] returned a melting point of 193 to 199 °C.
The same measure, in the same setting: with `CCCn1cc(-c2nc(C#N)c(N)nc2-c2ccccc2)ccc1=O` [Example 13, 3-Amino-6-(6-oxo-1-propyl-1,6-dihydro-3-pyridyl)-5-phenyl-2-pyrazinecarbonitrile] the figure was 180 to 183 °C; with `CC(C)n1cc(-c2nc(C#N)c(N)nc2-c2ccccc2)ccc1=O` [Example 14, 3-Amino-6-(1-isopropyl-6-oxo-1,6-dihydro-3-pyridyl)-5-phenyl-2-pyrazinecarbonitrile], 204.5 °C.
On to `CC(C)n1cc(-c2nc(C#N)c(N)nc2-c2ccc(F)c(F)c2)ccc1=O` [Example 39, 3-Amino-5-(3,4-difluorophenyl)-6-(1-isopropyl-6-oxo-1,6-dihydro-3-pyridyl)-2-pyrazinecarbonitrile], for which the “Manifestation rate of Catalepsy” value in data set [1] is 0/7. Moreover, the values for the Ki in data set [2] and in data set [3] were 6.52 nM and 24 nM, respectively.
The matching figures for `CC(C)n1cc(-c2nc(C(=O)NCC#N)c(N)nc2-c2ccccc2)ccc1=O` [Example 46, 3-Amino-N-(cyanomethyl)-6-(1-isopropyl-6-oxo-1,6-dihydro-3-pyridyl)-5-phenyl-2-pyrazinecarboxamide]: 0/7, 1.49 nM and 5.25 nM.
The like results for `CC(C)n1cc(-c2nc(CO)c(N)nc2-c2ccccc2)ccc1=O` [Example 47, 5-[5-amino-6-(hydroxymethyl)-3-phenyl-2-pyrazinyl]-1-isopropyl-2(1H)-pyridone] were, in that order, 1/7, 7.52 nM and 22.3 nM.
The matching figures for `CC(C)n1cc(-c2nc(C(=O)NCCO)c(N)nc2-c2ccccc2)ccc1=O` [Example 49, 3-Amino-N-(2-hydroxyethyl)-6-(1-isopropyl-6-oxo-1,6-dihydro-3-pyridyl)-5-phenyl-2-pyrazinecarboxamide]: 1/7, 1.69 nM and 6.07 nM.
Consider `CC(C)n1cc(-c2nc(Br)c(N)nc2-c2ccccc2)cc(Br)c1=O` [Example 53, 5-(5-amino-6-bromo-3-phenyl-2-pyrazinyl)-3-bromo-1-isopropyl-2(1H)-pyridone], for which, in data set [1], the “Manifestation rate of Catalepsy” value is on record as 0/7. Further, the Ki in data set [2] was determined as 0.91 nM; in data set [3] it was 0.93 nM.
For the compound `CC(C)n1cc(-c2ncc(N)nc2-c2cccs2)ccc1=O` [Example 115, 5-[5-Amino-3-(2-thienyl)-2-pyrazinyl]-1-isopropyl-2(1H)-pyridone], the “Manifestation rate of Catalepsy” value in data set [1] was 0/7. Further, the Ki worked out at 0.84 nM in data set [2] and 4.89 nM in data set [3].
The matching figures for `CC(C)n1cc(-c2ncc(N)nc2-c2cc(F)cc(F)c2)ccc1=O` [Example 129, 5-[5-Amino-3-(3,5-difluorophenyl)-2-pyrazinyl]-1-isopropyl-2(1H)-pyridone]: 0/7, 3.9 nM and 10.7 nM.
Consider `CC(C)n1cc(-c2nc(Br)c(N)nc2-c2ccccc2)ccc1=O` [Example 141, 5-(5-amino-6-bromo-3-phenyl-2-pyrazinyl)-1-isopropyl-2(1H)-pyridone], for which the “Manifestation rate of Catalepsy” value in data set [1] was 0/7. Besides, the Ki in data set [2] turned out to be 0.23 nM; in data set [3], 0.61 nM.
Turning to `CC(C)n1cc(-c2nc(-c3ccco3)c(N)nc2-c2ccccc2)ccc1=O` [Example 144, 5-[5-Amino-6-(2-furyl)-3-phenyl-2-pyrazinyl]-1-isopropyl-2(1H)-pyridone], the “Manifestation rate of Catalepsy” value in data set [1] is recorded as 0/7. Further, the Ki in data set [2] is 0.54 nM; in data set [3], 1.78 nM.
The like results for `CC(C)n1cc(-c2nc(Oc3ccccc3)c(N)nc2-c2ccccc2)ccc1=O` [Example 151, 5-(5-amino-6-phenoxy-3-phenyl-2-pyrazinyl)-1-isopropyl-2(1H)-pyridone] were, in that order, 0/7, 0.32 nM and 1.57 nM.
